Blank lines part the entries; values can stand above or below the molecule they belong to. Where a SMILES comes first, the peptide text is derived from it. Bridges are numbered along the chain shown (N, C = ends). [ ]: non-standard residue; d: D form. The star is where a group is joined. Decanoyl(3,6,9-trioxa) = COCCOCCOCC(=O)*; S5 = C=CCCC[C@](C)(N)C(=O)O; Nle = CCCC[C@H](N)C(=O)O
Legend:
[1] = Plasma PK/PD study in rats; format: in vivo, rat; settings: male Sprague-Dawley rats
Procedure: Five peptidomimetic macrocycles of the invention, as well as sermorelin, were studied to determine pharmacokinetic and pharmacodynamic parameters in rats. Male Sprague-Dawley rats (300 g, non-fasted, cannulated) were used. The study had three arms: IV administration, SC administration, and SC administration (vehicle control). For experiments using sermorelin, a dose level of 3 mg/kg IV/SC bolus was used (dose volume of […] dose and dose concentration of 1 mg/mL). The vehicle used was: 10 wt % N, N-Dimethylacetamide, 10 wt % DMSO, 2 wt % Solutol HS 15 in water for injection containing 45 mg/mL (4.5 wt %) Mannitol and 25 mM (0.38 wt %) Histidine (pH 7.5; 320 mOsm/kg). The peptide was first dissolved at high concentration in DMA and DMSO before a second dilution in Solutol vehicle.
For experiments using peptidomimetic macrocycles, 0.1 mL of DMA and 0.1 mL of DMSO were used to combine with each mg of macrocycle (˜4.3-4.5 mg of macrocycle used in each experiment). Sonication was used to ensure complete solubilization. 0.8 mL of Solutol vehicle was used for each mg of macrocycle in DMA/DMSO. The solutions were mixed gently with pipet or light vortexing. Fresh vials were used for each day of dosing, and macrocycles were stored solid at −20° C. prior to formulation.
For each study arm, 2 rats were bled (350 μL) at specific time points (5 min, 15 min, 30 min, 1 h, 2 h, 4 h, 8 h, 24 h, and 48 h) and a 150 μL bleed was performed just before dosing. Plasma was prepared into K2EDTA tubes by centrifuging for 20 minutes at 4° C. at 2000G maximum 30 minutes after collection. From each 350 μL bleed, 120 μL were transferred to one tube for PK studies and 50 μL to another tube for PD studies and frozen immediately. From the 150 μL bleed, 70 μL were transferred to one tube for PD studies and frozen immediately.

Plasma compatibility = format: physicochemical
Procedure: The plasma compatibility of exemplary peptidomimetic macrocycles was also determined. Peptidomimetic macrocycles with a plasma compatability value (PC) that is greater than 0.1 were determined as being plasma compatible.

[2] = target: T1, VIPR1 (Vasointestinal Peptide Receptor 1) (Homo sapiens, UniProt P32241); experiment: DiscoverX cAMP Hunter eXpress VIPR1 CHO-K1 GPCR assay; format: cell-based; settings: VIPR1 CHO-K1 cells
T1 construct: host or cells: CHO-K1 (cAMP Hunter eXpress VIPR1 CHO-K1 GPCR assay kit)
T1 sequence (P32241 31-457): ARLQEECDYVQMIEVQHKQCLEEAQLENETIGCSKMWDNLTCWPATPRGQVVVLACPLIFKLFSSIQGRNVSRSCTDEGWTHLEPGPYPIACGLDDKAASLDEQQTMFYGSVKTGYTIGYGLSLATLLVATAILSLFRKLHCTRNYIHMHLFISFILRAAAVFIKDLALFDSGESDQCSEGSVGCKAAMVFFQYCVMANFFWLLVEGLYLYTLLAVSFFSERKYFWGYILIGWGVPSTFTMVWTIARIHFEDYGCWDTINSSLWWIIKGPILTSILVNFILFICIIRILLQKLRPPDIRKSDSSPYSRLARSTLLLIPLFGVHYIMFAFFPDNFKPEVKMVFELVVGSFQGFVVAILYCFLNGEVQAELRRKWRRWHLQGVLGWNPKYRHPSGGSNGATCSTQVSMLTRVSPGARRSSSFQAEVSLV
From the text: DiscoverX cAmP Hunter eXpress VIPRI CHO-K1 GPCR and GHRHR CHO-K1 GPCR assays kits were used. The DiscoverX kits contain naturally coupled GPCR cell lines designed to detect GPCR signaling through second messenger activation. This signaling involves a membrane bound enzyme called adenylate cyclase. […] receptors modulate cAMP by either inhibiting or stimulating adenylate cyclase, respectively. The DiscoverX cell lines included in the kits utilize the natural coupling status of the GPCR to monitor activation of […] receptors. Following ligand stimulation, the functional status of the GPCR is monitored by measuring cellular cAMP levels using a homogeneous, gain of signal competitive immunoassay based on Enzyme Fragment Complementation (EFC). The amount of EFC is measured by analysis with a fluorescent plate reader.
On the day before the assay, the DiscoverX cell lines were defrosted, plated into 384 well plates and allowed to incubate overnight. All the samples were diluted to 2 mM using 100% DMSO. The vials were sonicated and centrifuged to assure all peptides went into solution. The final volumes were small, 80-200 μl. An 80% purity and peptide content was assumed for all samples and dilutions were based on the molecular weights. On the day of the assay, the samples were diluted to 200 μM in water and then to 4 μM in DiscoverX assay buffer (supplemented with 0.1% BSA). Serial dilutions were performed on assay day, 16 dilutions from 1000 nM were run side by side in duplicate for each peptide for study. The assays were performed in the 384 well plates with the assistance of a CyBio Bi-Well 384 channel liquid handling robot. The samples were analyzed on a Tecan Ultra Evolution plate reader according to DiscoverX guidelines. The EC50 values were determined using GraphPad Prism software. The EC50 value is defined as the concentration of agonist that provokes a response halfway between the baseline and maximum response.
DiscoverX™ cAmP Hunter eXpress VIPR1 CHO-K1 GPCR and GHRHR CHO-K1 GPCR assay kits were used. On the day before the assay, the DiscoverX™ cell lines were defrosted, plated into 384 well plates and allowed to incubate overnight. All the samples were diluted to 2 mM using 100% DMSO. The vials were sonicated and centrifuged to assure all peptides went into solution. The final volumes were small, 80-200 μl. An 80% purity and peptide content was assumed for all samples and dilutions were based on the molecular weights. On the day of the assay, the samples were diluted to 200 μM in water and then to 4 μM in DiscoverX™ assay buffer (supplemented with 0.1% BSA). Serial dilutions were performed on assay day, 16 dilutions from 1000 nM were run side by side in duplicate for each peptide for study. The assays were performed in the 384 well plates with the assistance of a CyBio™ Bi-Well 384 channel liquid handling robot. The samples were analyzed on a Tecan™ Ultra Evolution plate reader according to DiscoverX™ guidelines. The EC50 values were determined using GraphPad™ Prism software. The EC50 value is defined as the concentration of agonist that provokes a response halfway between the baseline and maximum response. (+=>25 nM; ++=>10-25 nM; +++=>1-10 nM; ++++=>0.1-1 nM; +++++=<0.1 nM). […]

- AUC Ext (%) [1]: 13.8%
- MRT ([1]; rat, 3 mg/kg): 1.6 h
- clearance ([1]; rat, 3 mg/kg, read-out: Clp (converted)): 2.85 mL/min/kg
- Vd ([1]; rat, 3 mg/kg, read-out: Vdss): 0.267 L/kg
- half-life ([1]; rat, 3 mg/kg, read-out: t ½ (converted)): 55.1 h
- AUC(0-inf) ([1]; rat, 3 mg/kg, route not given): 17500 ng·h/mL
- Plasma Compatability (Plasma compatibility): 3.5 mg/mL
SMILES: CC/C=C/CC(=O)N[C@@H](Cc1ccc(O)cc1)C(=O)N[C@@H](C)C(=O)N[C@@H](CC(=O)O)C(=O)N[C@@H](C)C(=O)N[C@H](C(=O)N[C@@H](Cc1ccccc1)C(=O)N[C@H](C(=O)N[C@@H](CC(N)=O)C(=O)N[C@@H](CO)C(=O)N[C@@H](Cc1ccc(O)cc1)C(=O)N[C@@H](CCCNC(=N)N)C(=O)N[C@@H](CCCCN)C(=O)N[C@H](C(=O)N[C@@H](CC(C)C)C(=O)NCC(=O)N[C@@H](CCC(N)=O)C(=O)N[C@@H](CC(C)C)C(=O)N[C@@H](CO)C(=O)N[C@@H](C)C(=O)N[C@@H](CCCNC(=N)N)C(=O)N[C@@H](CCCCN)C(=O)N[C@@H](CC(C)C)C(=O)N[C@@H](CC(C)C)C(=O)N[C@@H](CCC(N)=O)C(=O)N[C@@H](CC(=O)O)C(=O)N[C@H](C(=O)N[C@@H](CCSC)C(=O)N[C@@H](CO)C(=O)N[C@@H](CCCNC(=N)N)C(=O)N[C@@H](CCC(N)=O)C(=O)N[C@@H](CCC(N)=O)C(=O)NCC(=O)N[C@@H](CCC(=O)O)C(=O)N[C@@H](CO)C(=O)N[C@@H](CC(N)=O)C(=O)N[C@@H](CCC(N)=O)C(=O)N[C@@H](CCC(=O)O)C(=O)N[C@@H](CCCNC(=N)N)C(=O)NCC(=O)N[C@@H](C)C(=O)N[C@@H](CCCNC(=N)N)C(=O)N[C@@H](C)C(=O)N[C@@H](CCCNC(=N)N)C(=O)N[C@@H](CC(C)C)C(N)=O)[C@@H](C)CC)C(C)C)[C@@H](C)O)[C@@H](C)CC [SP-1, reference compound]

- EC50 [2]: 0.1 to 1 nM
- Plasma Compatability (Plasma compatibility): 4.6 mg/mL
SMILES: CC[C@H](C)[C@H](NC(=O)[C@H](C)NC(=O)[C@H](CC(=O)O)NC(=O)[C@H](C)NC(=O)[C@@H](N)Cc1ccc(O)cc1)C(=O)N[C@@H](Cc1ccccc1)C(=O)N[C@H](C(=O)N[C@@H](CC(N)=O)C(=O)N[C@@H](CO)C(=O)N[C@@H](Cc1ccc(O)cc1)C(=O)N[C@@H](CCCNC(=N)N)C(=O)N[C@@H](CCCCN)C(=O)N[C@H](C(=O)N[C@@H](CC(C)C)C(=O)NCC(=O)N[C@@H](CCC(N)=O)C(=O)N[C@@H](CC(C)C)C(=O)N[C@@H](CO)C(=O)N[C@@H](C)C(=O)N[C@@H](CCCNC(=N)N)C(=O)N[C@@H](CCCCN)C(=O)N[C@@H](CC(C)C)C(=O)N[C@@H](CC(C)C)C(=O)N[C@@H](CCC(N)=O)C(=O)N[C@@H](CC(=O)O)C(=O)N[C@H](C(=O)N[C@@H](CCSC)C(=O)N[C@@H](CO)C(=O)N[C@@H](CCCNC(=N)N)C(N)=O)[C@@H](C)CC)C(C)C)[C@@H](C)O [SP-2, reference compound]

- Plasma Compatability (Plasma compatibility): 0.9 mg/mL
SMILES: CCCC[C@@H]1NC(=O)[C@H](C)NC(=O)[C@H](CC(C)C)NC(=O)[C@@](C)(NC(=O)[C@H](CCCCN)NC(=O)[C@H](CCCNC(=N)N)NC(=O)[C@H](Cc2ccc(O)cc2)NC(=O)[C@H](CO)NC(=O)[C@H](CCC(N)=O)NC(=O)[C@@H](NC(=O)[C@H](Cc2ccccc2)NC(=O)[C@@H](NC(=O)[C@H](C)NC(=O)[C@H](CC(=O)O)NC(=O)[C@@H](C)NC(=O)[C@@H](N)Cc2ccc(O)cc2)[C@@H](C)CC)[C@@H](C)O)CCCC=CCCC[C@@](C)(C(=O)N[C@@H](CO)C(=O)N[C@@H](C)C(=O)N[C@@H](CCCNC(=N)N)C(=O)N[C@@H](CCCCN)C(=O)N[C@@H](C)C(=O)N[C@@H](CC(C)C)C(=O)N[C@@H](CCC(N)=O)C(=O)N[C@@H](CC(=O)O)C(=O)N[C@H](C(=O)N[C@@H](CCCC)C(=O)N[C@@H](CO)C(=O)N[C@@H](CCCNC(=N)N)C(N)=O)[C@@H](C)CC)NC1=O [SP-106] (H-Y[dA]DAIFTQSYRK[S5]LA[Nle][S5]SARKALQDI[Nle]SR-NH2; staple 13-17)

- Plasma Compatability (Plasma compatibility): 1.6 mg/mL
SMILES: CCCC[C@H](NC(=O)[C@@H](NC(=O)[C@H](CC(=O)O)NC(=O)[C@H](CCC(N)=O)NC(=O)[C@H](CC(C)C)NC(=O)[C@H](C)NC(=O)[C@H](CCCCN)NC(=O)[C@H](CCCNC(=N)N)NC(=O)[C@H](C)NC(=O)[C@H](CO)NC(=O)[C@]1(C)CCCC=CCCC[C@](C)(NC(=O)[C@H](CCCCN)NC(=O)[C@H](CCCNC(=N)N)NC(=O)[C@H](Cc2ccc(O)cc2)NC(=O)[C@H](CO)NC(=O)[C@H](C)NC(=O)[C@@H](NC(=O)[C@H](Cc2ccccc2)NC(=O)[C@@H](NC(=O)[C@H](C)NC(=O)[C@H](CC(=O)O)NC(=O)[C@@H](C)NC(=O)[C@H](Cc2ccc(O)cc2)NC(=O)COCCOCCOC)[C@@H](C)CC)[C@@H](C)O)C(=O)N[C@@H](CC(C)C)C(=O)N[C@@H](C)C(=O)N[C@@H](CCC(N)=O)C(=O)N1)[C@@H](C)CC)C(=O)N[C@@H](CO)C(=O)N[C@@H](CCCNC(=N)N)C(N)=O [SP-135] ({Decanoyl(3,6,9-trioxa)}-Y[dA]DAIFTASYRK[S5]LAQ[S5]SARKALQDI[Nle]SR-NH2; staple 13-17; N-terminus and C-terminus assumed)
